Biological target: Multidrug resistance-associated protein 1 (Homo sapiens, UniProt P33527)
Assay: TP_TRANSPORTER: translocation from outer to inner leaflet in MRP1-asolectin proteoliposome
Assay type: functional, subcellular

Chain of Multidrug resistance-associated protein 1 (P33527 whole entry): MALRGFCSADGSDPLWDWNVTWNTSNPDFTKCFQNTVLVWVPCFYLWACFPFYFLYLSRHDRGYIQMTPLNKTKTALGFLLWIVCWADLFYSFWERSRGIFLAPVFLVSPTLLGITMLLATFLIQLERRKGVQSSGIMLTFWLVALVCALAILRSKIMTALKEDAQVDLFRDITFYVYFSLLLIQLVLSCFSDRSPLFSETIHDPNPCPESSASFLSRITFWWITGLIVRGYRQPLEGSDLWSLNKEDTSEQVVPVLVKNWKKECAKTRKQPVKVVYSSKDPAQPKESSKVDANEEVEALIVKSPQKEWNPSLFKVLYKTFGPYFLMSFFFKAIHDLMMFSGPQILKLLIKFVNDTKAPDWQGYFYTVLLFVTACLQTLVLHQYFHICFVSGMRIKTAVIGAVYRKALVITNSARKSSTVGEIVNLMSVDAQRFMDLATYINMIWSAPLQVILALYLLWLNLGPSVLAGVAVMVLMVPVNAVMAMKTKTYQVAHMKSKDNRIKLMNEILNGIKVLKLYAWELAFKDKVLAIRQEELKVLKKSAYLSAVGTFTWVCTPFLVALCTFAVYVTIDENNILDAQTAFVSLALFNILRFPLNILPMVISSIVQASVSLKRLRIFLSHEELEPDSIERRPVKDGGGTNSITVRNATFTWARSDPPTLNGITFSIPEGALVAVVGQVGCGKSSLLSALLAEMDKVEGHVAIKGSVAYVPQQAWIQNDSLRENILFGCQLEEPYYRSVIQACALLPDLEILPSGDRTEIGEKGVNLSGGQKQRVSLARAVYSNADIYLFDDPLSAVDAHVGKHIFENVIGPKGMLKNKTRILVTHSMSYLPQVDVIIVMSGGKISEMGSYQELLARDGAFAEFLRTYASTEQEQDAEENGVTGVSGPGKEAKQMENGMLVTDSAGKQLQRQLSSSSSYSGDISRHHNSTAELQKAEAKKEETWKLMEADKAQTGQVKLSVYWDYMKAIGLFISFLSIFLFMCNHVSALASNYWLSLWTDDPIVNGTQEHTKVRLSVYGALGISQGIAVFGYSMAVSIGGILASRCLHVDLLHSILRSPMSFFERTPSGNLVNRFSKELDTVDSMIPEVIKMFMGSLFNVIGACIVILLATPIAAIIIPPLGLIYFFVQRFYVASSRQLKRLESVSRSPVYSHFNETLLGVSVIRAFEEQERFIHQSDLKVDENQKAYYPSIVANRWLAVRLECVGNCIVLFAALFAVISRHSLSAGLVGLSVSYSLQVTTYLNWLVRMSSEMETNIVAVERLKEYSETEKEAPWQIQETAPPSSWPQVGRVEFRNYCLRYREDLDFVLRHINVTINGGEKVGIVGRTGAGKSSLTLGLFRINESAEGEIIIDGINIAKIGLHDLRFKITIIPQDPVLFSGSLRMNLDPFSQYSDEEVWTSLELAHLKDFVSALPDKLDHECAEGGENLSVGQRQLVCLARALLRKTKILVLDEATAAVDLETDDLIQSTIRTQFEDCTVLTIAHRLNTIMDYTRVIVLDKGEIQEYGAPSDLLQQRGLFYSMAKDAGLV

CCCCCC(=O)OCC(COP(=O)([O-])OCC[N+](C)(C)c1ccc([N+](=O)[O-])c2nonc12)OC(=O)CCCCC (stereo unspecified)
Activity: substrate []

Source: ChEMBL document CHEMBL2074071, “Fluorescent modified phosphatidylcholine floppase activity of reconstituted multidrug resistance-associated protein MRP1” (Biochim Biophys Acta, 2004)
